From PMC2668075 (PLoS ONE, 2009)
Peptide text beside a SMILES is read from it. * marks the point of attachment. AMC = Cc1cc(=O)oc2cc(N*)ccc12

Target: T1, HcDppIVA (Histoplasma ohiense, UniProt A0ACF1AGW9)
T1 construct: gene DPP4
Settings: pH and temperature series (optimum pH 8, 42 °C); 1 h

Cc1cc(=O)oc2cc(NC(=O)[C@@H]3CCCN3C(=O)CN)ccc12 [Gly-pro-AMC] (H-Gly-Pro-{AMC})
fluorescent AMC release assay: We measured DppIV activity of the purified preparation towards Gly-pro-AMC
